Data set [1] can be described thus: Selectivity index, ratio of CC50 for human Huh7.5 cells to EC50 for HCV genotype 1b infected in human Huh7/Rep-Feo1b replicon cells. Details: species or system Huh-7.
Data set [2] concerns Hepatitis C virus. Briefly: Antiviral activity against HCV genotype 1b infected in human Huh7/Rep-Feo1b replicon cells assessed as inhibition of viral viral RNA replication incubated for 48 hrs by luciferase reporter gene assay. The format is functional, cell-based, Hepacivirus hominis. The conditions noted are these: Huh-7, 48 h.
The test system of data set [3] is Hepatitis C virus. Briefly: Antiviral activity against HCV genotype 1b infected in human Huh7/Rep-Feo1b replicon cells assessed as inhibition of viral viral RNA replication at 50 uM incubated for 48 hrs by luciferase reporter gene assay. The conditions noted are these: Huh-7, 48 h. Type of data set: functional, Hepacivirus hominis. (A replicon is a self-replicating genome or part of one, used to study replication in cells.)

Data set [4] can be described thus: Cytotoxicity against human Huh7.5 cells by MTS assay. The format is cell-based, Huh-7. (Formazan colour is commonly taken as a measure of viable cells.)
Data set [5] relates to Hepatitis C virus. Nature of the data set: Antiviral activity against HCV genotype 2a infected in human Huh7.5-FGR-JC1-Rluc2A replicon cells assessed as inhibition of viral viral RNA replication at 50 uM incubated for 48 hrs by luciferase reporter gene assay. Type of data set: functional, Hepacivirus hominis. The conditions noted are these: Huh-7, 48 h.
For data set [6], the system named is Hepatitis C virus. Briefly: Antiviral activity against HCV genotype 2a infected in human Huh7.5-FGR-JC1-Rluc2A replicon cells assessed as inhibition of viral viral RNA replication incubated for 48 hrs by luciferase reporter gene assay. The format is functional, cell-based, Hepacivirus hominis. The conditions noted are these: Huh-7, 48 h.
Data set [7] in a line: Selectivity index, ratio of CC50 for human Huh7.5 cells to EC50 for HCV genotype 2a infected in human Huh7.5-FGR-JC1-Rluc2A replicon cells. Details: species or system Huh-7.

Where only a bound is given, the exact number is not on record here.

These results are taken from ChEMBL document CHEMBL3407442, “Synthesis and biological evaluation of α-aryl-α-tetralone derivatives as hepatitis C virus inhibitors” (Eur J Med Chem, 2015).

Regarding `COc1ccccc1C1CCc2ccccc2C1=O` (centres undefined), the results for the “Ratio CC50/EC50” value in data set [1] and in data set [7] were 2.3 and 8.2, respectively. Besides, the EC50 (in general, the concentration needed to bring the measured effect to its halfway point) stood at 50.1 µM in the data set on Hepatitis C virus [2] and 14.3 µM in the data set on Hepatitis C virus [6]. Also, the inhibition (as a rule, the change of the read-out against control, counted positive when it falls) at 50 µM was 48.4% in the data set with Hepatitis C virus [3] and 84.4% with Hepatitis C virus [5]. Moreover, half-maximal cytotoxicity in data set [4] (CC50) was put at 117 µM.
Consider `COc1ccc(C2CCc3c(OC)cccc3C2=O)c(OC)c1` (centres undefined), for which the “Ratio CC50/EC50” value was determined as 8.2 in data set [1] and 32.6 in data set [7]. The EC50 in the data set with Hepatitis C virus [2] came to 12.8 µM; in the data set on Hepatitis C virus [6] it was 3.2 µM. For the same molecule, the results for the inhibition at 50 µM in the data set with Hepatitis C virus [3] and with Hepatitis C virus [5] were 96.5% and 99.5%, respectively. In data set [4], half-maximal cytotoxicity (CC50) was put at 104 µM.
On to `COc1ccccc1C1CCc2c(O)ccc(OC)c2C1=O` (centres undefined), for which the results for the inhibition at 50 µM in the data set with Hepatitis C virus [3] and in the data set with Hepatitis C virus [5] were 41.2% and 44%, respectively. In addition, the CC50 (as a rule, the concentration giving 50% cytotoxicity) in data set [4] was more than 200 µM.
On to `COc1ccc2c(c1)CCC(c1ccccc1OC)C2=O` (centres undefined), for which the entries for the “Ratio CC50/EC50” value in data set [1] and in data set [7] were 14.3 and 101.4, respectively. For the same molecule, the concentration giving a half-maximal response (EC50) was 10.6 µM with Hepatitis C virus [2] and 1.5 µM in the data set with Hepatitis C virus [6]. Further, the inhibition at 50 µM in the data set on Hepatitis C virus [3] was found to be 86.4%; with Hepatitis C virus [5], 88.8%. Further, the cytotoxic concentration (CC50) in data set [4] was determined as 152 µM.
As to `COc1ccccc1C1CCc2c(OC)cccc2C1=O` (centres undefined), the “Ratio CC50/EC50” value in data set [1] is reported as more than 4.1; in data set [7] it was more than 18.5. Besides, the EC50 in the data set with Hepatitis C virus [2] was 48.5 µM; in the data set with Hepatitis C virus [6], 10.8 µM. In addition, the inhibition at 50 µM with Hepatitis C virus [3] was 51.7%; in the data set on Hepatitis C virus [5], 86.6%. In data set [4], the half-maximal cytotoxic concentration (CC50) is more than 200 µM.
On to `COc1ccc2c(c1)C(=O)C(c1ccccc1OC)CC2` (centres undefined), for which the “Ratio CC50/EC50” value is given as 3.7 in data set [1] and 30.8 in data set [7]. Further, the concentration giving a half-maximal response (EC50) with Hepatitis C virus [2] stood at 29.5 µM; with Hepatitis C virus [6] it was 3.6 µM. Also, the inhibition at 50 µM in the data set on Hepatitis C virus [3] is 85.4%; in the data set on Hepatitis C virus [5], 91.8%. Further, half-maximal cytotoxicity in data set [4] (CC50) was put at 111 µM.
As for `COc1ccc(O)c2c1C(=O)C(c1ccccc1OCc1ccccc1)CC2` (centres undefined), the “Ratio CC50/EC50” value in data set [1] is given as less than 8; in data set [7] it was less than 11.3. Moreover, the results for the concentration for a half-maximal effect (EC50) with Hepatitis C virus [2] and in the data set on Hepatitis C virus [6] were 6.21 µM and 4.4 µM, respectively. Besides, the inhibition at 50 µM was 99.1% with Hepatitis C virus [3] and 98% in the data set with Hepatitis C virus [5]. The molecule also displayed a CC50 in data set [4] of less than 50 µM.
For the molecule `COc1ccc(C2CCc3ccccc3C2=O)c(OC)c1` (centres undefined), the “Ratio CC50/EC50” value was 1.4 in data set [1] and 5.7 in data set [7]. The EC50 in the data set on Hepatitis C virus [2] worked out at 44.3 µM; with Hepatitis C virus [6], 11 µM. The inhibition at 50 µM with Hepatitis C virus [3] worked out at 55.6%; with Hepatitis C virus [5], 83.9%. This molecule also yielded a CC50 in data set [4] of 63.6 µM.
Take `COc1ccc2c(c1)CCC(c1ccc(OC)cc1OC)C2=O` (centres undefined): the “Ratio CC50/EC50” value in data set [1] is reported as less than 6.6; in data set [7], less than 15.3. Besides, the figures for the 50% effective concentration (EC50) in the data set with Hepatitis C virus [2] and in the data set with Hepatitis C virus [6] were 7.5 µM and 3.3 µM, respectively. Moreover, the inhibition at 50 µM in the data set on Hepatitis C virus [3] came to 89.5%; in the data set on Hepatitis C virus [5], 93.4%. In data set [4], this molecule showed a CC50 of less than 50 µM.
Regarding `COc1ccccc1C1CCc2c(OC)ccc(OC)c2C1=O` (centres undefined), the results for the “Ratio CC50/EC50” value in data set [1] and in data set [7] were more than 24.9 and more than 29.5, respectively. Besides, the concentration for a half-maximal effect (EC50) in the data set with Hepatitis C virus [2] was 8 µM; with Hepatitis C virus [6], 6.8 µM. Besides, the inhibition at 50 µM with Hepatitis C virus [3] amounted to 80.6%; in the data set on Hepatitis C virus [5] it was 88.8%. Besides, the CC50 in data set [4] is more than 200 µM.
Regarding `COc1ccc(C2CCc3c(OC)ccc(OC)c3C2=O)c(OC)c1` (centres undefined), the “Ratio CC50/EC50” value is less than 6 in data set [1] and less than 2.3 in data set [7]. The EC50 with Hepatitis C virus [2] came to 8.2 µM; with Hepatitis C virus [6], 21.5 µM. The figures for the inhibition at 50 µM in the data set with Hepatitis C virus [3] and in the data set on Hepatitis C virus [5] were 73.8% and 86.2%, respectively. Further, the CC50 in data set [4] was less than 50 µM.
`COc1cccc2c1CCC(c1ccccc1O)C2=O` (centres undefined): the inhibition at 50 µM with Hepatitis C virus [3] was found to be 26.1%; with Hepatitis C virus [5] it was 86%. For the same molecule, half-maximal cytotoxicity in data set [4] (CC50) was put at 111 µM. The EC50 in the data set on Hepatitis C virus [6] turned out to be 10.8 µM. Further, the “Ratio CC50/EC50” value in data set [7] stood at 10.2.
Regarding `COc1ccc(C2CCc3ccc(OC)cc3C2=O)c(OC)c1` (centres undefined), the figures for the “Ratio CC50/EC50” value in data set [1] and in data set [7] were less than 3.5 and less than 3.3, respectively. Moreover, the EC50 in the data set with Hepatitis C virus [2] was 14.3 µM; in the data set with Hepatitis C virus [6], 15 µM. The inhibition at 50 µM was 95.2% in the data set on Hepatitis C virus [3] and 97.6% in the data set on Hepatitis C virus [5]. The same molecule returned a CC50 in data set [4] of less than 50 µM.
Regarding `COc1cc2c(cc1OC)C(=O)C(c1ccccc1OC)CC2` (centres undefined), the results for the “Ratio CC50/EC50” value in data set [1] and in data set [7] were 2.9 and 26.2, respectively. The half-maximal effective concentration (EC50) in the data set with Hepatitis C virus [2] is 42.5 µM; in the data set on Hepatitis C virus [6], 4.8 µM. In addition, the inhibition at 50 µM in the data set with Hepatitis C virus [3] is 60.2%; with Hepatitis C virus [5], 79.9%. This molecule came in with a 50% cytotoxic concentration (CC50) in data set [4] of 126 µM.
For `COc1ccc(C2CCc3cc(OC)c(OC)cc3C2=O)c(OC)c1` (centres undefined), the Ratio CC50/EC50 was more than 111 in data set [1] and more than 46.1 in data set [7]. For the same molecule, the concentration giving a half-maximal response (EC50) in the data set on Hepatitis C virus [2] was 1.8 µM; in the data set with Hepatitis C virus [6], 4.3 µM. Further, the inhibition at 50 µM in the data set with Hepatitis C virus [3] was 89.6%; in the data set with Hepatitis C virus [5], 86.8%. Besides, the CC50 in data set [4] was more than 200 µM.
